Measured values from patent US11173126B2, “Nanoalum particles comprising a PAA sizing agent” (priority 2016, dated 2021).

What was measured:
[1] = Particle size (Z-ave) and polydispersity by dynamic light scattering; format: physicochemical; settings: single non-pegylated phospholipid included during milling; data not shown
C57Bl/6 mice = settings: mouse, in vivo
C57/BL6 mice = settings: mouse, in vivo

Molecule | effectiveness as sizing agent (aggregation of alum) [1] | ID97-specific CD4+ T cell response (CD154, IFN-γ, TNF, IL-2) (C57Bl/6 mice) | luciferase expression from RNA replicon (C57/BL6 mice)
CCCCCCCCCCCCCC(=O)OC[C@H](COP(=O)(O)OCCN)OC(=O)CCCCCCCCCCCCC [DMPE] | not found to be effective sizing agents | – | –
Distearoylglycerophosphoethanolamine [DSPE] | not found to be effective sizing agents | – | –
Poly(acrylic acid) [PAA] | – | low frequency | does not deliver and/or induce an expressible level
